The source of these data is BindingDB's records for doi:10.1016/s0028-3908(97)00038-5 (Smithkline Beecham Pharmaceuticals, 1997).

The target in test [1] is 5-hydroxytryptamine receptor 7 (Homo sapiens, UniProt P34969).
Test [2] concerns the target 5-hydroxytryptamine receptor 1B (Cricetulus griseus, UniProt P46636).
Test [3] has as its target Tyrosine-protein kinase Fyn (Homo sapiens, UniProt P06241).
Test [4] deals with 5-hydroxytryptamine receptor 4 (Sus scrofa, UniProt Q29006).
The target in test [5] is T1, Alpha-1B adrenergic receptor (Mesocricetus auratus, UniProt P18841).
T1 sequence (P18841 whole entry): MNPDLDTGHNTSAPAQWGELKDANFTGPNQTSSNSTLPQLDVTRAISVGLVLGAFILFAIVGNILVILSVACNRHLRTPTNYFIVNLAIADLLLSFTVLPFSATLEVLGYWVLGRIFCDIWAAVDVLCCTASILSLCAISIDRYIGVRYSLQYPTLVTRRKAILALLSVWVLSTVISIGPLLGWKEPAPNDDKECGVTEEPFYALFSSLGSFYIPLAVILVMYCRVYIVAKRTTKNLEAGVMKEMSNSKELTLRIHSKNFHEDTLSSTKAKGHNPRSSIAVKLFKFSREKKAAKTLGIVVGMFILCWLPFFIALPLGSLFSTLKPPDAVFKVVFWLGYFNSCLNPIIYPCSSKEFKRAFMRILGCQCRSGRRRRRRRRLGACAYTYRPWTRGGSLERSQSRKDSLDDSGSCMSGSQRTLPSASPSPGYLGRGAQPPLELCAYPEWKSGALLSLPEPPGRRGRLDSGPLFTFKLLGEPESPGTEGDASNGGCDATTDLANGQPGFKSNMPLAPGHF

A further test deals with D(2) dopamine receptor (Mesocricetus auratus, UniProt A0A1U7QAF5).
Another test addresses D(3) dopamine receptor (Cricetulus griseus, UniProt A0A3Q0CXS4).

The structures appear in SMILES notation. A value given as a limit tells only on which side of the number the result lay.

Tyrosine-protein kinase Fyn, sequence (P06241 whole entry): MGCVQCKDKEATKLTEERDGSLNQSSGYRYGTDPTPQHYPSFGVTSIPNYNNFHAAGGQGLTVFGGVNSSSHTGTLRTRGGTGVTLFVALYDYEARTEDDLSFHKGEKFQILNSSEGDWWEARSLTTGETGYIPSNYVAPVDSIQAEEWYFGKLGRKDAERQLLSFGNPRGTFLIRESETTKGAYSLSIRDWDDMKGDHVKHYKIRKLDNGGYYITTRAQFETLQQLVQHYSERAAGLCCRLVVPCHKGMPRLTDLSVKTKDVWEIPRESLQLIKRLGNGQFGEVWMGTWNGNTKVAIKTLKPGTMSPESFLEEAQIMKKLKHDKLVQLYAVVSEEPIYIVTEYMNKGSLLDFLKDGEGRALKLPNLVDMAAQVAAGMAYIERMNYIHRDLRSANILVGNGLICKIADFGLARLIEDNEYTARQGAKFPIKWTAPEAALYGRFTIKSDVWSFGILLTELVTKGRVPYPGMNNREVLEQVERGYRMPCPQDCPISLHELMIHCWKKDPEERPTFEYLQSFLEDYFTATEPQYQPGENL
5-hydroxytryptamine receptor 4, sequence (Q29006 whole entry): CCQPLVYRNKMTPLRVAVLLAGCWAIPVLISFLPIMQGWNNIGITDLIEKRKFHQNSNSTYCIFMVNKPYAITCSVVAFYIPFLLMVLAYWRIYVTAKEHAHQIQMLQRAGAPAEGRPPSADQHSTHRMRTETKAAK
5-hydroxytryptamine receptor 7, sequence (P34969 whole entry): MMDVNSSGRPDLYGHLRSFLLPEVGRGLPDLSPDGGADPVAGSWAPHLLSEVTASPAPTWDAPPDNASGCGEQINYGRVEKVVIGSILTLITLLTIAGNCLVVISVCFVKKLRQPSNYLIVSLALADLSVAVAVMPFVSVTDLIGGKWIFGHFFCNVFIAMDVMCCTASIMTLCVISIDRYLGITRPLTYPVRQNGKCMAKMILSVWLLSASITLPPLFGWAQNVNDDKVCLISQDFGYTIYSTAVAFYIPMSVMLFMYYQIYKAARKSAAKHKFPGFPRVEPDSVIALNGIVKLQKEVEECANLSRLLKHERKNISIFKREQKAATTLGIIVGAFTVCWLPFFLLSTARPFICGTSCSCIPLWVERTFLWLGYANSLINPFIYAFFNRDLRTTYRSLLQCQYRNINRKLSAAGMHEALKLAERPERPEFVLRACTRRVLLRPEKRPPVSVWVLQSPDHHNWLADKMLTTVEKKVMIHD
D(3) dopamine receptor, sequence (A0A3Q0CXS4 whole entry): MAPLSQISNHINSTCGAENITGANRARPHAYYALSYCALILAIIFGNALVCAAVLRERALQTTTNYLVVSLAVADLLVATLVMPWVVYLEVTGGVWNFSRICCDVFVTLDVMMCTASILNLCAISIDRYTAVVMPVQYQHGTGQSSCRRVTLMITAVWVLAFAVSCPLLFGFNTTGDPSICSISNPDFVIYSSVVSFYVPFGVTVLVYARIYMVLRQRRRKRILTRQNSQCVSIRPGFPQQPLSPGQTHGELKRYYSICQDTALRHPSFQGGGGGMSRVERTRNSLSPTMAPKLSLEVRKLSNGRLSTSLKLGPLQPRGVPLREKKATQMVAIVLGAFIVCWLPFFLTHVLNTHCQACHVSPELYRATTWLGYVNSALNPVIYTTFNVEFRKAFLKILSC
D(2) dopamine receptor, sequence (A0A1U7QAF5 whole entry): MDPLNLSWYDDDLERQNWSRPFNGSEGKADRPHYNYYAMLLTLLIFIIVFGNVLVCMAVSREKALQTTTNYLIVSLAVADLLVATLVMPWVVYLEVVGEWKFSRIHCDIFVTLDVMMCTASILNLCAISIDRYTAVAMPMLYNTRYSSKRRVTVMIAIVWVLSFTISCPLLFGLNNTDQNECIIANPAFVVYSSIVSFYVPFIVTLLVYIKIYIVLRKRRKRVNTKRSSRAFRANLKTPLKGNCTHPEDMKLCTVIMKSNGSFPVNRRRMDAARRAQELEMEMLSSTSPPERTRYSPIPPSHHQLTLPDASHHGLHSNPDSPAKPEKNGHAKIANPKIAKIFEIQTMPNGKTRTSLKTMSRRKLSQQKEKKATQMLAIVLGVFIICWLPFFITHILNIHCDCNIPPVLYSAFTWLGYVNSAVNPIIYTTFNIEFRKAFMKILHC
5-hydroxytryptamine receptor 1B, sequence (P46636 whole entry): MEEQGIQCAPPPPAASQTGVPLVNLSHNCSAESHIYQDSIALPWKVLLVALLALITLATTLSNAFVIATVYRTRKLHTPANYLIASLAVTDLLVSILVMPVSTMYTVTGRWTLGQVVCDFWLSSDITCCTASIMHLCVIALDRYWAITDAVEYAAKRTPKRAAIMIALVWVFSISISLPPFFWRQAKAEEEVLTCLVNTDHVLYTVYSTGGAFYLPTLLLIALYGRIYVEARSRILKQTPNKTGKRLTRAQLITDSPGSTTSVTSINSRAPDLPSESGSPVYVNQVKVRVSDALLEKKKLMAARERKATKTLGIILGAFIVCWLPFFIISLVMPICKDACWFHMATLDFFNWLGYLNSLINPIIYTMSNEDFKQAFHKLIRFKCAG

For the compound `Cc1cc2c(cc1Cl)N(C(=O)Nc1ccc(Oc3cccnc3C)nc1)CC2` [CAS_181632-25-7], the Ki in test [1] was 794 nM; in test [2], 398 nM; in test [3] it was 1000 nM; in test [4], 3.16 µM; in test [5], > 10 µM; at D(2) dopamine receptor it was 631 nM. The affinity at D(3) dopamine receptor, expressed as Ki, was 631 nM.
